Results on two compounds are retold here after paper PMC10222323, “Novel Biotinylated Cu(II)-Phenanthroline Complexes: 2D and 3D Cytotoxic Activity and Mechanistic Insight” (Molecules, 2023).

Assay [1] deals with 2008 (ovarian) cancer cells. As to the kind of experiment: MTT cytotoxicity test, 72 h, 2008. The class given is cell-based, human. The procedure:
(§1) The in vitro anticancer potential of the newly developed complexes and of the ligands has been tested on six different cancer cell lines including PSN-1 (pancreatic), HCT-15 (colorectal with low sensitivity for cisplatin), 2008 (ovarian), A431 (cervical), MDA-MB-231 (breast), and U1285 (lung) cancer cells. For comparison purposes, cisplatin efficacy was assessed under the same experimental conditions.
(§2) Table 2 reported the IC50 values of the complexes against two types of ovarian cancer cells, one sensitive (2008) and one resistant to cisplatin (C13*). […] The resistance factor (R.F., the ratio among IC50 values obtained in resistant C13*cells and those calculated in the sensitive 2008 ones) calculated for all tested complexes resulted to be ≤2 (R.F. for cisplatin 11.1), strongly confirming the ability of the complexes to bypass cisplatin resistance.
(§3) Tested compounds were dissolved in DMSO and added to the cell-growth medium to a final solvent concentration of 0.5%, which is well reported to not have cytotoxic effects on cell viability. Cisplatin (Sigma Chemical Co., St. Louis, MO, USA) was dissolved in a physiologic solution (0.9% sodium chloride).
(§4) Human colon (HCT-15), pancreatic (PSN-1), and breast (MDA-MB-231) carcinoma-cell lines were obtained from the American Type Culture Collection (ATCC, Rockville, MD). Human cervical carcinoma (A431) cells were kindly provided by Prof. F. Zunino (Division of Experimental Oncology B, Istituto Nazionale dei Tumori, Milan). Human ovarian carcinoma (2008) cells and their cisplatin-resistant counterpart (C13*) were kindly provided by Prof. G. Marverti (Dipartimento di Scienze Biomediche, Università di Modena University, Italy). Cell lines were cultured in RPMI-1640 or DMEM medium (Euroclone) added with 10% fetal calf serum (Euroclone, Milan, Italy), antibiotics (50 units per mL penicillin, and 50 μg mL^−1 streptomycin), and 2 mM L-glutamine.
(§5) The growth inhibitory effect toward the tumour cell lines was evaluated by the MTT test as previously described.
(Tetrazolium assays rely on reduction of a dye to a coloured formazan, in cell work by metabolically active cells.)

Assay [2] relates to U1285 (lung) cancer cells. Kind of assay: MTT cytotoxicity test, 72 h, U1285. It is filed as cell-based, human. To be noted: mean ± S.D., read-out: IC50 U-1285. How it is done: as §1, §3, §5
For assay [3], the system named is C13* ovarian cancer cells (cisplatin-resistant). Kind of assay: MTT cytotoxicity test, 72 h, cisplatin-resistant C13*. It is filed as cell-based, human. As to conditions: for R.F. (resistance factor): RF = IC50 resistant (C13*)/IC50 parental cells (2008); for IC50: cisplatin-resistant cells, 72 h, MTT test. How it is done:
as §2, §3, §4, §5

Assay [4] relates to six different cancer cell lines. As to the kind of experiment: MTT cytotoxicity, average over the cancer cell line panel. It is filed as cell-based, human. As to conditions: 2D assays, average over the cancer cell lines of Table 1. How it is done: as §1
Due to note, all the complexes were very effective in the MDA-MB-231 cell line, which overexpress the SMVT (sodium-dependent multivitamin transporter) receptor, which is well known to be involved in the intracellular translocation of biotin [24].
as §5

Assay [5] deals with genomic DNA of MDA-MB-231 cells. As to conditions: 3 h; for cells with lesioned genomic DNA (comets): 4 μM, fraction of treated cells. How it is done: As proof of the principle of their DNA-targeting ability, the alkaline single-cell gel electrophoresis (Comet assay, Figure 4) assay was performed to evaluate cellular genomic DNA lesions induced by tested complexes. […] MDA-MDB-231 cells were exposed for 3 h to 4 μM of tested compounds or 200 µM of the reference drug chlorambucil. Figure 4A depicts the relative percentage of comets and the number of cells forming a comet relative to the total number of detected cells per each condition in two randomly captured fields from two independent experiments. […] On the other hand, some reports highlighted protein disulphide isomerase (PDI) as an emerging target for copper complexes. On this basis, we also evaluated the ability of our complexes to act as PDI inhibitors. The enzyme was treated with 25 µM of complexes 2 and 4, and the ability to hamper its activity was assessed by a biochemical colourimetric method (Proteostat kit).
About 3 × 10^4 MDA-MB-231 cells were seeded in 25 cm^2 flasks in a growth medium. After overnight incubation, cells were treated for 3 h with […] of tested compounds and processed as previously described. Pictures were captured with a Zeiss LSM-800 confocal microscope (Zeiss, Oberkochen, Germany). All photos were analyzed by the Zen 2.3 system (Zeiss, Oberkochen, Germany).
Figure 4 Mechanistic studies. (A) Comet assay: MDA-MDB-231 cells were treated for 3 h with 4 μM of tested compounds 2 and 4 or 200 µM of the reference drug chlorambucil. The relative percentage of comets (number of cells forming a comet/total number of cells) was detected in two randomly captured fields from two independent experiments. (B) PDI inhibition induced by tested compounds was measured by Proteostat PDI assay kit. The PDI inhibitor Bacitracine (0.5 mM) was used as a positive control. Error bars indicate S.D. ** p < 0.01 compared with control.

Assay [6] concerns MDA-MB-231 cells. To be noted: 24 h, 2 and 3 μM. The procedure: The ability to enter cancer cells is a very important factor to determine the biological activity of metal-based compounds. Consequently, with the aim of correlating the antiproliferative activity elicited by all the newly developed complexes and their accumulation profiles into cancer cells, the Cu content was evaluated in the SMVT overexpressing MDA-MB-231 cells. Uptake profiles were determined by treating cancer cells for 24 h with two concentrations (2 and 3 μM) of tested complexes.
MDA-MB-231 cells (2.5 × 10^6) were seeded in 75 cm^2 flasks in a growth medium (20 mL). Following 24 h, cells were treated for 24 h with tested complexes and samples processed as previously described.
Figure 2 Cellular uptake of complexes 1–4 in drug-treated MDA-MB-231 human breast cancer cells. Cells were incubated for 24 h with […] of tested complexes. The amount of cellular Cu was estimated by GF-AAS. Error bars are S.D.

In assay [7] the test system is MDA-MB-231 cells. To be noted: 3 μM, 24 and 48 h.
The mark [8] stands for this setting: Table 2, cisplatin-sensitive parental cells.

By IC50 is commonly meant the concentration needed to halve the response being measured. In the case of `O=C(CCCC[C@@H]1SC[C@@H]2NC(=O)N[C@@H]21)NN=C1C(=O)c2ccc[n+]3c2-c2c1ccc[n+]2[Cu-2]31[n+]2cccc3ccc4ccc[n+]1c4c32.O=[N+]([O-])[O-].O=[N+]([O-])[O-]` [Complex 4, [Cu(phen)(phendione-biotin)](NO3)2], the IC50 in assay [1] (Table 1, mean ± S.D.) was 0.6 ± 0.2 µM; in assay [1] (setting [8]), 0.6 ± 0.2 µM; in assay [2], 2 ± 0.6 µM; in assay [3], 1.1 ± 0.3 µM; in assay [4], 0.8 µM. In assay [3], the “R.F. (resistance factor)” value was 1.9. The “DNA damaging efficacy compared with chlorambucil” value in assay [5] (4 μM compound vs 200 µM chlorambucil) is on record as “much higher than that induced by the reference compound chlorambucil”. The “cells with lesioned genomic DNA (comets)” value in assay [5] was “one third”. Besides, the “Cu intracellular content (uptake)” value in the assay on MDA-MB-231 cells [6] is recorded as “most internalised into cancer cells”. Moreover, the “apoptosis induction (Hoechst staining)” value in the assay on MDA-MB-231 cells [7] is given as “morphological features typical of cells undergoing apoptosis”.

`O=C(CCCC[C@@H]1SC[C@@H]2NC(=O)N[C@@H]21)NN=C1C(=O)c2ccc[n+]3c2-c2c1ccc[n+]2[Cu-2]3([Cl])[Cl]` [Complex 2, [Cu(phendione-biotin)Cl2]]: the IC50 in assay [1] (Table 1, mean ± S.D.) is 1.1 ± 0.3 µM; in assay [1] (setting [8]) it was 1.1 ± 0.3 µM; in assay [2], 3.8 ± 0.5 µM; in assay [3] it was 1.1 ± 0.4 µM. For the same compound, in assay [3], the “R.F. (resistance factor)” value turned out to be 1.0. Further, in assay [5], the “cells with lesioned genomic DNA (comets)” value is listed as “at least one fourth”.
